Measurements as given in US11485735B2, “Selective CDK4/6 inhibitor and preparation thereof” (Wuxi Shuangliang Biotechnology Co., Ltd., priority 2019, dated 2022).
Where a name gives a salt, the structure may show the parent alone.

Legend:
[1] = molecular target: T1, CDK4/CyclinD3 (Homo sapiens, UniProt P11802); assay: In-vitro kinase inhibitory activity, CDK4/CyclinD3 (Caliper EZ Reader II mobility shift); assay type: biochemical; conditions: CDK4/CyclinD3 20 nM, ATP 2 mM, Peptide 1 μM, 27° C., 180 min; read-out: IC50 (half maximal inhibitory concentration, nM) CDK4
T1 construct: purchased Wuxi Biortus Biosciences Co. Ltd
Experimental: The final volume for assay was 16 μL, and the reaction temperature was 27° C. CDK4/CyclinD3 was produced by Wuxi Biortus Biosciences Co. Ltd. The concentration of the kinase was determined by the results of the optimization experiment. The kinase was diluted with an assay buffer (50 mM Tris HCl pH 8.0, 0.01% Tween 20, 50 μg/mL BSA, and 5 mM MgCl2) to obtain a corresponding kinase solution (2.4× concentration). The compound was dissolved in dimethyl sulfoxide (DMSO) to reach a concentration of 10 mM. […] 2 μL of the test compound solution was mixed with 5 μL of the kinase solution, and the mixture was incubated for 10 min. 5 μL of the mixed solution of the polypeptide substrate and ATP was then added. The mixture was incubated at 27° C. for 180 min, and then the reaction was terminated by adding 4 μL of EDTA with a concentration of 120 mM to each sample. […] Each assay was conducted in at least two replicates.
(§1) The final concentrations of the reagents in the assay were as follows. […] The reaction mixture was analyzed on a Caliper EZ Reader II by electrophoretic separation of the fluorescent substrate and the phosphorylated product. Data were calculated by using GraphPad Prism version 6.0 and IC50 values were obtained by adjusting the non-linear regression models of the dose response curves.

[2] = molecular target: T2, CDK6/CyclinD3 (Homo sapiens, UniProt Q00534); assay: In-vitro kinase inhibitory activity, CDK6/CyclinD3 (Caliper EZ Reader II mobility shift); assay type: biochemical; conditions: CDK6/CyclinD3 20 nM, ATP 2 mM, Peptide 1 μM, 27° C., 120 min; read-out: IC50 (half maximal inhibitory concentration, nM) CDK6
T2 construct: purchased Wuxi Biortus Biosciences Co. Ltd
Experimental: The final volume for assay was 16 μL, and the reaction temperature was 27° C. […] The compound was dissolved in dimethyl sulfoxide (DMSO) to reach a concentration of 10 mM. […] 2 μL of the test compound solution was mixed with 5 μL of the kinase solution, and the mixture was incubated for 10 min. 5 μL of the mixed solution of the polypeptide substrate and ATP was then added. The mixture was incubated at 27° C. for 120 min, and then the reaction was terminated by adding 4 μL of EDTA with a concentration of 120 mM to each sample. […] Each assay was conducted in at least two replicates.
as §1

[3] = molecular target: CDK9 (Homo sapiens, UniProt P50750); assay: In-vitro kinase inhibitory activity, CDK9 (selectivity); assay type: biochemical; conditions: read-out: IC50 (half maximal inhibitory concentration, nM) CDK9
[4] = molecular target: CDK2 (Homo sapiens, UniProt P24941); assay: In-vitro kinase inhibitory activity, CDK2 (selectivity); assay type: biochemical; conditions: read-out: IC50 (half maximal inhibitory concentration, nM) CDK2
[5] = system: human breast cancer MCF-7 cells; assay: Growth inhibition of tumor cells cultured in vitro, CellTiter-Glo, MCF-7; assay type: cell-based; conditions: for IC50: MCF-7, 72 h, CellTiter-Glo
Excerpt: (§2) Test drugs: Compounds of the present disclosure. Tumor cell strains: human colon cancer COLO205 cells and human breast cancer MCF-7 cells.
(§3) The growth inhibitory effects on human tumor cells COLO205 and MCF-7 cultured in vitro were observed by using a CellTiter-Glo Luminescent Cell Viability Assay Kit (Promega, Cat. No. G7572). Human tumor cells COLO205 and MCF-7 were both purchased from the American Type Culture Collection.
(§4) CellTiter-Glo Luminescent Cell Viability Assay: The previous cell culture medium was discarded, and the tumor cells were rinsed twice with PBS. An appropriate amount of trypsin (VWR, Cat. No. 0458-25G) was added to digest the tumor cells until most of the cells turned round and were detached from the wall. The trypsin digestion was terminated by adding an RPMI-1640 medium (COLO205; Gibco, Cat. No. A10491-01) containing 10% fetal bovine serum (Hyclone, Cat. No. SV30160.03) and MEM medium (MCF-7; Gibco, Cat. No. 10370-021) containing 10% fetal bovine serum and 0.01 mg/mL insulin, and the cells were gently pipetted with a pipette to completely suspend the tumor cells. After cell counting, a tumor cell suspension was prepared using a complete culture medium and the final concentration was 6.7×10^4 cells/mL. 90 μL of the tumor cell suspension was seeded in each well of a 96-well culture plate (6000 cells/well). The plate was then placed in an incubator with 5% CO2 at 37° C. and incubated for 24 h. A test drug was added by using an Agilent Bravo Automated Liquid Handling Platform, and 10 μL of the sample was added in each well. The assay was conducted in triplicate for each group. A compound of the present disclosure was dissolved in DMSO (BioRoYee, Cat. No. AF0231), and then the resulting solution was diluted to 10 μM/L, 3.33 μM/L, 1.11 μM/L, 0.37 μM/L, 0.123 μM/L, 0.041 μM/L, 0.0137 μM/L, 0.0046 μM/L, and 0.0015 μM/L with the culture medium. The concentration of DMSO was lower than 0.1%, and a culture medium containing 0.1% DMSO was added to the well which was set as a vehicle control group. The 96-well plate was placed in an incubator with 5% CO2 at 37° C. and incubated for 72 h. The 96-well plate to be tested was equilibrated at room temperature for 30 min, and 100 μL of Cell Titer-Glo reagent was added to each well. The contents of each well were mixed in an orbital shaker for 2 min to induce cell lysis, and the plate was incubated at room temperature for 10 min to achieve a constant value of fluorescent intensity. Finally, the chemiluminescence intensity was detected by TECAN M1000. Data were processed with Graphpad Prism 6.0 software. The growth curve of the cells was plotted. The cell growth inhibition rate of a drug was calculated, and the half maximal inhibitory concentration (IC50) of the drug was determined.

[6] = system: human colon cancer COLO205 cells; assay: Growth inhibition of tumor cells cultured in vitro, CellTiter-Glo, COLO205; assay type: cell-based; conditions: COLO205, 72 h, CellTiter-Glo
Excerpt: as §2, §3, §4

T1 sequence (P11802 whole entry, species assumed): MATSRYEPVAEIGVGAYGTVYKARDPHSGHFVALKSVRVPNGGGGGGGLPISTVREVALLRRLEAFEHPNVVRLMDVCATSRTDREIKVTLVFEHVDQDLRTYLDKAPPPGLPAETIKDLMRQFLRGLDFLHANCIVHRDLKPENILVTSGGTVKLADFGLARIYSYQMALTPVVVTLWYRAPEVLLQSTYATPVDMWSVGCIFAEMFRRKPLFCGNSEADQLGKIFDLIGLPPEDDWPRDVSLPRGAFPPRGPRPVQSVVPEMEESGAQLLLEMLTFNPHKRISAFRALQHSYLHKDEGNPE
T1 sequence (P30281 whole entry partner, species assumed): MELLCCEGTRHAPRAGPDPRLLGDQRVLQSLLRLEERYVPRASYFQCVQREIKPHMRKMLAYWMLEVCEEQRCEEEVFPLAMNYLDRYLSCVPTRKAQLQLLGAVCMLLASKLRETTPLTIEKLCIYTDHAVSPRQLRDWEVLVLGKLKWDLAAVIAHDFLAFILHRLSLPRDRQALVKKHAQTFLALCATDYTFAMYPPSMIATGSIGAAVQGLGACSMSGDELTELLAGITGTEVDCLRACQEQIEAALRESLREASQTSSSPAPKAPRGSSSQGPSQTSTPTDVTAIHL
T2 sequence (Q00534 whole entry, species assumed): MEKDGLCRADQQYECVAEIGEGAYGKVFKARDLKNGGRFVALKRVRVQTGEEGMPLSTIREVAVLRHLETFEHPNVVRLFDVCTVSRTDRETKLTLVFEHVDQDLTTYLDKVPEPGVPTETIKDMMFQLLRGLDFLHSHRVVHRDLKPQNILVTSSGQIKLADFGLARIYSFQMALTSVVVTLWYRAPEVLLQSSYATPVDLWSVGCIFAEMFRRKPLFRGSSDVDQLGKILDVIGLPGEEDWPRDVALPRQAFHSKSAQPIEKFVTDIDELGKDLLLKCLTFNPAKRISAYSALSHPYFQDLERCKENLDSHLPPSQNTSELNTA
T2 sequence (P30281 whole entry partner, species assumed): as the sequence (P30281 whole entry partner, species assumed) above
Sequence of CDK9 (P50750 whole entry, species assumed): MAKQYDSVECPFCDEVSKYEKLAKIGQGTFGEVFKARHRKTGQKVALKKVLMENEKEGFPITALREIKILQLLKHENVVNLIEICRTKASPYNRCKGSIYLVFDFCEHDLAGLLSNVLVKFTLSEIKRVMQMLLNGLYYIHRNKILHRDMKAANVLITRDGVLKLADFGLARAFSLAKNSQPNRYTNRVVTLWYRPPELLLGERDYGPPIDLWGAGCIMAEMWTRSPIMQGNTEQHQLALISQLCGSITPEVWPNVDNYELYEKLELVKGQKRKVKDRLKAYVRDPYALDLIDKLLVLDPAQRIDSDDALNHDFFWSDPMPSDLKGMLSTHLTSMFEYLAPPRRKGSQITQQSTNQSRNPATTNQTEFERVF
Sequence of CDK9 (O60563 whole entry partner, species assumed): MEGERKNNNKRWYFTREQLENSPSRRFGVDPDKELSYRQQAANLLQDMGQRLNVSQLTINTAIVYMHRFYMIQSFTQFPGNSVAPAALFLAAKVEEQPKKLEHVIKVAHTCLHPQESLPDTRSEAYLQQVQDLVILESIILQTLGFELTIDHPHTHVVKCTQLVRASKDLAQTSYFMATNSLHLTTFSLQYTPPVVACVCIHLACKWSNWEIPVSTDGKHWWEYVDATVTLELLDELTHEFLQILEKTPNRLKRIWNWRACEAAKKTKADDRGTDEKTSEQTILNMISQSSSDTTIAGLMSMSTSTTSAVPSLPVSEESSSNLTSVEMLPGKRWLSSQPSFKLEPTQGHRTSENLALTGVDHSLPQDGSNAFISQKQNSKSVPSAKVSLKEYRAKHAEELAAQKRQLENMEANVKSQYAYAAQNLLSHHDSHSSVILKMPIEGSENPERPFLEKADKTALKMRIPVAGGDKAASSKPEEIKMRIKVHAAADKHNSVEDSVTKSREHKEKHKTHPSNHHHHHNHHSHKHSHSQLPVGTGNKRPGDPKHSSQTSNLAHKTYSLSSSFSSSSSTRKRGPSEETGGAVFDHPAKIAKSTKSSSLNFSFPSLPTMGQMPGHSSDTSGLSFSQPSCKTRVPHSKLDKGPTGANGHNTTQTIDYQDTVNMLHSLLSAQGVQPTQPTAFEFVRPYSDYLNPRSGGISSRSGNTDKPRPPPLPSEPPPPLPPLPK

SMILES | IC50 [1] | IC50 [2] | IC50 [3] | IC50 [4] | IC50 ([5]; Homo sapiens, MCF7, 72 h) | IC50 [6] | IC50 ([6]; Homo sapiens, COLO 205, 72 h) | inhibitory effect on human breast cancer MCF-7 cells (in words) ([5]; summary of the table) | IC50 [5] | IC50 ([6]; dihydrochloride)
CC(=O)c1c(C)c2cnc(Nc3ccc(N4CCN(CCN5CCC(CC6CCN(c7ccc8c(c7)CN(C7CCC(=O)NC7=O)C8=O)CC6)CC5)CC4)cn3)nc2n(C2CCCC2)c1=O (stereo not shown) [Compound 10, 3-(5-(4-((1-(2-(4-(6-((6-acetyl-8-cyclopentyl-5-methyl-7-oxo-7,8-dihydropyrido[2,3-d]pyrimidin-2-yl)amino)pyridin-3-yl)piperazin-1-yl)ethyl)piperidin-4-yl)methyl)piperidin-1-yl)-1-oxoisoindolin-2-yl)piperidine-2,6-dione] | 11.5 nM | 3.21 nM | 4150 nM | > 10000 nM | – | – | – | – | – | –
COc1c(N2CCN(CCN3CCN(c4ccc(Nc5ncc6c(C)c(C(C)=O)c(=O)n(C7CCCC7)c6n5)nc4)CC3)CC2)ccc2c1CN(C1CCC(=O)NC1=O)C2=O (stereo not shown) [Compound 18, 3-(5-(4-(2-(4-(6-((6-acetyl-8-cyclopentyl-5-methyl-7-oxo-7,8-dihydropyrido[2,3-d]pyrimidin-2-yl)amino)pyridin-3-yl)piperazin-1-yl)ethyl)piperazin-1-yl)-4-methoxy-1-oxoisoindolin-2-yl)piperidine-2,6-dione] | 99.5 nM | 37.8 nM | > 10000 nM | – | > 10000 nM | 133 nM | – | – | – | –
CC(=O)c1c(C)c2cnc(Nc3ccc(N4CCN(CCN5CCN(c6ccc7c(c6Cl)CN(C6CCC(=O)NC6=O)C7=O)CC5)CC4)cn3)nc2n(C2CCCC2)c1=O (stereo not shown) [Compound 20, 3-(5-(4-(2-(4-(6-((6-acetyl-8-cyclopentyl-5-methyl-7-oxo-7,8-dihydropyrido[2,3-d]pyrimidin-2-yl)amino)pyridin-3-yl)piperazin-1-yl)ethyl)piperazin-1-yl)-4-chloro-1-oxoisoindolin-2-yl)piperidine-2,6-dione] | 44.6 nM | 19.6 nM | 3760 nM | > 10000 nM | > 10000 nM | – | 78.3 nM | – | – | –
COc1cc(N2CCN(CCN3CCN(c4ccc(Nc5ncc6c(C)c(C(C)=O)c(=O)n(C7CCCC7)c6n5)nc4)CC3)CC2)cc2c1C(=O)N(C1CCC(=O)NC1=O)C2 (stereo not shown) [Compound 16, 3-(5-(4-(2-(4-(6-((6-acetyl-8-cyclopentyl-5-methyl-7-oxo-7,8-dihydropyrido[2,3-d]pyrimidin-2-yl)amino)pyridin-3-yl)piperazin-1-yl)ethyl)piperazin-1-yl)-7-methoxy-1-oxoisoindolin-2-yl)piperidine-2,6-dione] | 60.1 nM | 26.4 nM | > 10000 nM | – | > 10000 nM | – | 66.9 nM | – | – | –
CC(=O)c1c(C)c2cnc(Nc3ccc(N4CCN(CCN5CCC(CN6CCN(c7c(F)cc8c(c7F)CN(C7CCC(=O)NC7=O)C8=O)CC6)CC5)CC4)cn3)nc2n(C2CCCC2)c1=O (stereo not shown) [Compound 34, 3-(5-(4-((1-(2-(4-(6-((6-acetyl-8-cyclopentyl-5-methyl-7-oxo-7,8-dihydropyrido[2,3-d]pyrimidin-2-yl)amino)pyridin-3-yl)piperazin-1-yl)ethyl)piperidin-4-yl)methyl)piperazin-1-yl)-4,6-difluoro-1-oxoisoindolin-2-yl)piperidine-2,6-dione trihydrochloride] | 17.6 nM | 9.84 nM | 1560 nM | – | 442 nM | – | 68.8 nM | – | – | –
CC(=O)c1c(C)c2cnc(Nc3ccc(N4CCN(CCN5CCN(c6cc7c(cc6F)C(=O)N(C6CCC(=O)NC6=O)C7)CC5)CC4)cn3)nc2n(C2CCCC2)c1=O.Cl.Cl (stereo not shown) [Compound 27, 3-(5-(4-(2-(4-(6-((6-acetyl-8-cyclopentyl-5-methyl-7-oxo-7,8-dihydropyrido[2,3-d]pyrimidin-2-yl)amino)pyridin-3-yl)piperazin-1-yl)ethyl)piperazin-1-yl)-6-fluoro-1-oxoisoindolin-2-yl)piperidine-2,6-dione dihydrochloride] | 45.4 nM | 29.6 nM | > 10000 nM | – | 71.6 nM | – | – | relatively good inhibitory effects | – | –
CN(C)C(=O)c1cc2cnc(Nc3ccc(N4CCN(CCN5CCC(CN6CCN(c7ccc8c(c7)CN([C@H]7CCC(=O)NC7=O)C8=O)CC6)CC5)CC4)cn3)nc2n1C1CCCC1 [Compound 29, (S)-7-cyclopentyl-2-((5-(4-(2-(4-((4-(2-(2,6-dioxopiperidin-3-yl)-1-oxoisoindolin-5-yl)piperazin-1-yl)methyl)piperidin-1-yl)ethyl)piperazin-1-yl)pyridin-2-yl)amino)-N,N-dimethyl-7H-pyrrolo[2,3-d]pyrimidin-6-amide trihydrochloride] | 37.8 nM | 42.1 nM | 3650 nM | – | 106 nM | – | – | – | – | –
Cc1nc2c(F)cc(-c3nc(Nc4ccc(CN5CCN(CCN6CCN(c7ccc8c(c7)CN(C7CCC(=O)NC7=O)C8=O)CC6)CC5)cn4)ncc3F)cc2n1C(C)C (stereo not shown) [Compound 12, 3-(5-(4-(2-(4-((6-((5-fluoro-4-(4-fluoro-1-isopropyl-2-methyl-1H-benzo[d]imidazol-6-yl)pyrimidin-2-yl)amino)pyridin-3-yl)methyl)piperazin-1-yl)ethyl)piperazin-1-yl)-1-oxoisoindolin-2-yl) piperidine-2,6-dione trihydrochloride] | 13 nM | 23.2 nM | 688 nM | 1030 nM | – | – | – | – | – | –
COc1c(N2CCN(CCN3CCN(c4ccc(Nc5ncc6c(C)c(C(C)=O)c(=O)n(C7CCCC7)c6n5)nc4)CC3)CC2)ccc2c1CN(C1CCC(=O)NC1=O)C2=O (stereo not shown) [Compound 19, 3-(5-(4-(2-(4-(6-((6-acetyl-8-cyclopentyl-5-methyl-7-oxo-7,8-dihydropyrido[2,3-d]pyrimidin-2-yl)amino)pyridin-3-yl)piperazin-1-yl)ethyl)piperazin-1-yl)-4-methoxy-1-oxoisoindolin-2-yl)piperidine-2,6-dione dihydrochloride] | 54.8 nM | 20.5 nM | 5610 nM | – | – | – | – | – | > 10000 nM | 43.2 nM
